We go through 32 molecules from patent publication US20090209536A1, “AMINOQUINAZOLINE CANNABINOID RECEPTOR MODULATORS FOR TREATMENT OF DISEASE” (KALYPSYS, INC., priority 2007, published 2009).

Usually EC50 stands for the concentration that produces a half-maximal response.

Each structure is given as a SMILES string. Read-outs that look alike come from different tables or passages of the source.

For assay [1], the target named is T1, human cannabinoid receptor type 1 (Homo sapiens, UniProt P21554).
T1 construct: purchased Perkin Elmer RBHCB1M; host or cells: HEK 293 EBNA cells
As to the kind of experiment: Human CB1 Radioligand Binding Assay (basis of selectivity, CB2 vs. CB1). Particulars: CB1: HEK 293 EBNA cells expressing human CB1; CB2: CHO CB2 membranes. The procedure:
2. Human CB1 Radioligand Binding Assay
The incubation buffer was composed of 50 mM Tris-HCl pH 7.4, 2.5 mM EDTA, 5 mM MgCl2, 5.0 mg/ml fatty acid free BSA and the wash buffer was composed of 50 mM Tris-HCl pH 7.4, 2.5 mM EDTA, 5 mM MgCl2, 0.5 mg/ml fatty acid free BSA.

Assay [2] concerns the target T2, human cannabinoid receptor type 2 (Homo sapiens, UniProt P34972).
T2 construct: expressed in transfected cells; membrane preparation
As to the kind of experiment: Human CB2 Radioligand Binding Assay. Particulars: membranes from stably transfected CHO CB2 cells. In short, it runs like this: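 Test compounds (10 uM final, or dose-response) competed with [3H]CP-55,940, used at the Kd determined per membrane lot, for binding to stable human CB2-CHO membranes over 90 min at 30° C in pH 7.4 Tris/EGTA/MgCl2/BSA buffer. GF/C filtration then scintillation counting; 100 nM CP-55,940 defined 100% efficacy.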

[3] abbreviates: competition with [3H] CP-55,940, read-out: CB2 Ligand Binding Asssay EC50.

T1 sequence (P21554 whole entry): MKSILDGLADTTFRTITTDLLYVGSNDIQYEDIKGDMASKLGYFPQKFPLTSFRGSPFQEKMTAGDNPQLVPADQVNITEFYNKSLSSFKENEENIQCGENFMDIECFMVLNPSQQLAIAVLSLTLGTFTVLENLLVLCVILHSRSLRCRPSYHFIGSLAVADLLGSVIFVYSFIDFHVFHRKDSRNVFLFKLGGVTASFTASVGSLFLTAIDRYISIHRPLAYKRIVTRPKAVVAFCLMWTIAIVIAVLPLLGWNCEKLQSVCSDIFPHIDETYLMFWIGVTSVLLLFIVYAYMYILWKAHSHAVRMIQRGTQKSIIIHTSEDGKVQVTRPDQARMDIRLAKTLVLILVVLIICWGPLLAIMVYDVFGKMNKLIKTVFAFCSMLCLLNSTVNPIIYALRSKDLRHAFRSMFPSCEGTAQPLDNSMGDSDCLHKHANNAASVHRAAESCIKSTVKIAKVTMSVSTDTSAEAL
T2 sequence (P34972 whole entry): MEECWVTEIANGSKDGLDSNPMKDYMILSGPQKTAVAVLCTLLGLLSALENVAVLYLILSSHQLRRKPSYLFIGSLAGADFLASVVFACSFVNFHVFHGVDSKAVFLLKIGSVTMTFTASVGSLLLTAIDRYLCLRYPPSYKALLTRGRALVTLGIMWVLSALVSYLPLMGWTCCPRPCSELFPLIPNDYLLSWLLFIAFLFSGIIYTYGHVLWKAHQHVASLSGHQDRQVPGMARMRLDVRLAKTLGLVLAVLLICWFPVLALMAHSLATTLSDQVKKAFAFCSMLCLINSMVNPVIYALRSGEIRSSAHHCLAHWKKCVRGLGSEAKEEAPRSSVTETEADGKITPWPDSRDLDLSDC

Take `CCc1ccc2nc(-c3ccccc3Cl)nc(N3CCN(C)CC3)c2c1` [Example 173, 2-(2-Chlorophenyl)-6-ethyl-4-(4-methylpiperazin-1-yl)quinazoline]: the “Selectivity, CB2 vs. CB1” value in assay [1] was “+ (+ indicates > 10−fold)”. For the same molecule, the EC50 in assay [2] (setting [3]) was under 1000 nM.

With `CCCC(=O)N1CCN(c2nc(-c3ccccc3Cl)nc3ccccc23)CC1` [Example 95, 1-(4-(2-(2-Chlorophenyl)quinazolin-4-yl)piperazin-1-yl)butan-1-one], the “Selectivity, CB2 vs. CB1” value in assay [1] is listed as “+ (+ indicates > 10−fold)”. The EC50 in assay [2] (setting [3]) is under 1000 nM.

Take `CN1CCN(c2nc(-c3ccc(F)c(F)c3)nc3ccccc23)CC1` [Example 18, 2-(3,4-Difluorophenyl)-4-(4-methylpiperazin-1-yl)quinazoline]: the “Selectivity, CB2 vs. CB1” value in assay [1] is listed as “+ (+ indicates > 10−fold)”. For the same molecule, the EC50 in assay [2] (setting [3]) was under 1000 nM.

For `CN(c1ccc(C(C)(C)C)cc1)c1nc(-c2ccccc2Cl)nc2ccccc12` [Example 81, (4-tert-Butylphenyl)-[2-(2-chlorophenyl)quinazolin-4-yl]methylamine], the “Selectivity, CB2 vs. CB1” value in assay [1] is “− (− indicates ≦ 10−fold)”. Also, in assay [2] (setting [3]), the 50% effective concentration (EC50) is over 1000 nM.

Regarding `CC(C)S(=O)(=O)N1CCN(c2nc(-c3ccccc3Cl)nc3ccccc23)CC1` [Example 83, 2-(2-Chlorophenyl)-4-[4-(propane-2-sulfonyl)piperazin-1-yl]quinazoline], the “Selectivity, CB2 vs. CB1” value in assay [1] is reported as “− (− indicates ≦ 10−fold)”. This molecule gave an EC50 in assay [2] (CB2 Ligand Binding Asssay EC50, competition with [3H] CP-55,940) of over 1000 nM.

`CN1CCN(c2nc(-c3ccccc3Cl)nc3ccccc23)CC1=O` [Example 76, 4-(2-(2-Chlorophenyl)quinazolin-4-yl)-1-methylpiperazin-2-one]: the “Selectivity, CB2 vs. CB1” value in assay [1] was “− (− indicates ≦ 10−fold)”. In addition, the EC50 in assay [2] (setting [3]) was over 1000 nM.

Regarding `COC(=O)c1sccc1S(=O)(=O)NCc1nc(N2CCCC2)c2ccccc2n1` [Example 7, Methyl 3-(N-((4-(Pyrrolidin-1-yl)quinazolin-2-yl)methyl)sulfamoyl)thiophene-2-carboxylate], the “Selectivity, CB2 vs. CB1” value in assay [1] is on record as “+ (+ indicates > 10−fold)”. The EC50 in assay [2] (setting [3]) is under 1000 nM.

For the molecule `CN1CCN(c2nc(-c3ccccc3Cl)nc3ccc(C(C)(C)C)cc23)CC1` [Example 168, 6-tert-Butyl-2-(2-chlorophenyl)-4-(4-methylpiperazin-1-yl)quinazoline], the “Selectivity, CB2 vs. CB1” value in assay [1] is “+ (+ indicates > 10−fold)”. Also, the EC50 in assay [2] (setting [3]) was under 1000 nM.

Turning to `CC(C)CNc1nc(-c2ccccc2)nc2ccccc12` [Example 51, N-iso-Butyl-2-phenylquinazolin-4-amine], the “Selectivity, CB2 vs. CB1” value in assay [1] is reported as “− (− indicates ≦ 10−fold)”. Moreover, the EC50 in assay [2] (setting [3]) is over 1000 nM.

Regarding `COc1ccc2nc(C3CCCCC3)nc(N3CCCC3)c2c1` [Example 162, 2-Cyclohexyl-6-methoxy-4-(pyrrolidin-1-yl)quinazoline], the “Selectivity, CB2 vs. CB1” value in assay [1] was “+ (+ indicates > 10−fold)”. The EC50 in assay [2] (setting [3]) is under 1000 nM.

As for `FC(F)(F)Oc1ccc(-c2nc(N3CCOCC3)c3ccccc3n2)cc1` [Example 141, 4-Morpholin-4-yl-2-(4-trifluoromethoxyphenyl)quinazoline], the “Selectivity, CB2 vs. CB1” value in assay [1] is given as “− (− indicates ≦ 10−fold)”. In addition, in assay [2] (setting [3]), the EC50 was over 1000 nM.

Regarding `COc1cc2nc(CNS(=O)(=O)c3cccc4ccccc34)nc(N3CCCC3)c2cc1OC` [Example 307, N-((6,7-Dimethoxy-4-(pyrrolidin-1-yl)quinazolin-2-yl)methyl)naphthalene-1-sulfonamide], the “Selectivity, CB2 vs. CB1” value in assay [1] is given as “− (− indicates ≦ 10−fold)”. The EC50 in assay [2] (setting [3]) is under 1000 nM.

Take `Cc1ccccc1C(C)c1nc(N2CCCC2)c2ccccc2n1` (stereo not shown) [Example 342, 4-(Pyrrolidin-1-yl)-2-(1-o-tolylethyl)quinazoline]: the “Selectivity, CB2 vs. CB1” value in assay [1] is listed as “− (− indicates ≦ 10−fold)”. In assay [2] (setting [3]), the EC50 is over 1000 nM.

In the case of `CN1CCCN(c2nc(-c3ccccc3Cl)nc3ccccc23)CC1` [Example 333, 2-(2-Chlorophenyl)-4-(4-methyl-1,4-diazepan-1-yl)quinazoline], the “Selectivity, CB2 vs. CB1” value in assay [1] was “− (− indicates ≦ 10−fold)”. Further, the EC50 in assay [2] (setting [3]) is under 1000 nM.

As for `CN(c1ccc(C(C)(C)C)cc1)c1nc(-c2ccc(C(C)(C)C)cc2)nc2ccccc12` [Example 119, N,2-Bis(4-tert-butylphenyl)-N-methylquinazolin-4-amine], the “Selectivity, CB2 vs. CB1” value in assay [1] is “− (− indicates ≦ 10−fold)”. Further, the EC50 in assay [2] (setting [3]) was over 1000 nM.

Take `Clc1ccc2nc(C3CCCCC3)nc(N3CCCC3)c2c1` [Example 167, 6-Chloro-2-cyclohexyl-4-(pyrrolidin-1-yl)quinazoline]: the “Selectivity, CB2 vs. CB1” value in assay [1] is reported as “+ (+ indicates > 10−fold)”. For the same molecule, the EC50 in assay [2] (setting [3]) was under 1000 nM.

As for `CCOC(=O)N1CCN(c2nc(C3CCCCC3)nc3ccc(OC)cc23)CC1` [Example 218, Ethyl 4-(2-cyclohexyl-6-methoxyquinazolin-4-yl)piperazine-1-carboxylate], in assay [1], the “Selectivity, CB2 vs. CB1” value is given as “− (− indicates ≦ 10−fold)”. Moreover, in assay [2] (setting [3]), the EC50 was over 1000 nM.

As to `CN(c1ccc(C(C)(C)C)cc1)c1nc(-c2ccc(OC(F)(F)F)cc2)nc2ccccc12` [Example 144, (4-tert-Butylphenyl)methyl-[2-(4-trifluoromethoxyphenyl)quinazolin-4-yl]amine], the “Selectivity, CB2 vs. CB1” value in assay [1] is “− (− indicates ≦ 10−fold)”. In addition, in assay [2] (setting [3]), the EC50 is over 1000 nM.

With `CC(C)(C)c1ccc(Nc2nc(-c3ccc(C(F)(F)F)cc3)nc3ccccc23)cc1` [Example 46, (4-tert-Butylphenyl)-[2-(4-trifluoromethylphenyl)quinazolin-4-yl]amine], the “Selectivity, CB2 vs. CB1” value in assay [1] is listed as “+ (+ indicates > 10−fold)”. Further, the EC50 in assay [2] (setting [3]) was under 1000 nM.

`FC(F)(F)Oc1ccc(-c2nc(N3CCCCC3)c3ccccc3n2)cc1` [Example 140, 4-Piperidin-1-yl-2-(4-trifluoromethoxyphenyl)quinazoline]: the “Selectivity, CB2 vs. CB1” value in assay [1] is listed as “− (− indicates ≦ 10−fold)”. Further, the EC50 in assay [2] (setting [3]) is under 1000 nM.

As to `CN(c1nc(-c2ccccc2Cl)nc2ccccc12)C1CCCCC1` [Example 63, 2-(2-Chlorophenyl)-N-cyclohexyl-N-methylquinazolin-4-amine], the “Selectivity, CB2 vs. CB1” value in assay [1] was “− (− indicates ≦ 10−fold)”. In addition, the concentration for a half-maximal effect (EC50) in assay [2] (setting [3]) was under 1000 nM.

For `Clc1ccccc1Nc1nc(C2CCCCC2)nc2ccccc12` [Example 37, N-(2-Chlorophenyl)-2-cyclohexylquinazolin-4-amine], in assay [1], the “Selectivity, CB2 vs. CB1” value was “− (− indicates ≦ 10−fold)”. Besides, the EC50 in assay [2] (setting [3]) was over 1000 nM.

Turning to `CN1CCN(c2nc(-c3ccccc3Cl)nc3ccc(OC(F)(F)F)cc23)CC1` [Example 180, 2-(2-Chlorophenyl)-4-(4-methylpiperazin-1-yl)-6-(trifluoromethoxy) quinazoline], the “Selectivity, CB2 vs. CB1” value in assay [1] is listed as “− (− indicates ≦ 10−fold)”. In addition, in assay [2] (setting [3]), the EC50 was under 1000 nM.

Consider `CC(C)(C)c1ccc(-c2nc(N3CCCC3)c3ccccc3n2)cc1` [Example 110, 2-(4-tert-Butylphenyl)-4-(pyrrolidin-1-yl)quinazoline], for which, in assay [1], the “Selectivity, CB2 vs. CB1” value is on record as “+ (+ indicates > 10−fold)”. For the same molecule, in assay [2] (setting [3]), the EC50 is under 1000 nM.

On to `CC(C)(C)c1ccc(Nc2nc(-c3ccccc3Cl)nc3ccccc23)cc1` [Example 69, (4-tert-Butylphenyl)-[2-(2-chlorophenyl)quinazolin-4-yl]amine], for which, in assay [1], the “Selectivity, CB2 vs. CB1” value is given as “− (− indicates ≦ 10−fold)”. Besides, in assay [2] (setting [3]), the EC50 is over 1000 nM.

Turning to `CCCc1nc(N2CCN(C)CC2)c2ccccc2n1` [Example 41, 4-(4-Methylpiperazin-1-yl)-2-propylquinazoline], the “Selectivity, CB2 vs. CB1” value in assay [1] is on record as “− (− indicates ≦ 10−fold)”. Further, the EC50 in assay [2] (setting [3]) is over 1000 nM.

For the molecule `CCOC(=O)N1CCN(c2nc(Nc3ccccc3)nc3cc(C(C)(C)C)ccc23)CC1` [Example 286, Ethyl 4-(7-tert-butyl-2-(phenylamino)quinazolin-4-yl)piperazine-1-carboxylate], in assay [1], the “Selectivity, CB2 vs. CB1” value was “+ (+ indicates > 10−fold)”. In addition, in assay [2] (setting [3]), the EC50 was under 1000 nM.

Turning to `Fc1ccc2nc(-c3ccccc3Cl)nc(N3CCCC3)c2c1` [Example 270, 2-(2-Chlorophenyl)-6-fluoro-4-(pyrrolidin-1-yl)quinazoline], in assay [1], the “Selectivity, CB2 vs. CB1” value is “− (− indicates ≦ 10−fold)”. In addition, the EC50 in assay [2] (setting [3]) is over 1000 nM.

Consider `Cc1ccc(Cl)cc1N1CCN(c2nc(-c3ccccc3Cl)nc3ccccc23)CC1` [Example 67, 4-[4-(5-Chloro-2-methylphenyl)piperazin-1-yl]-2-(2-chlorophenyl) quinazoline], for which, in assay [1], the “Selectivity, CB2 vs. CB1” value is given as “− (− indicates ≦ 10−fold)”. Moreover, the EC50 in assay [2] (setting [3]) is under 1000 nM.

For the molecule `COc1ccc2nc(-c3ccccc3F)nc(N3CCCC3)c2c1` [Example 276, 2-(2-Fluorophenyl)-6-methoxy-4-(pyrrolidin-1-yl)quinazoline], the “Selectivity, CB2 vs. CB1” value in assay [1] is on record as “− (− indicates ≦ 10−fold)”. Further, in assay [2] (setting [3]), the EC50 is over 1000 nM.

On to `O=C1CNCCN1c1nc(-c2ccccc2Cl)nc2ccccc12` [Example 71, 1-(2-(2-Chlorophenyl)quinazolin-4-yl)piperazin-2-one], for which the “Selectivity, CB2 vs. CB1” value in assay [1] was “− (− indicates ≦ 10−fold)”. The EC50 in assay [2] (setting [3]) was over 1000 nM.

With `COc1cc2nc(Oc3ccc(C(C)(C)C)cc3)nc(N3CCCC3)c2cc1OC` [Example 296, 2-(4-tert-Butylphenoxy)-6,7-dimethoxy-4-(pyrrolidin-1-yl)quinazoline], the “Selectivity, CB2 vs. CB1” value in assay [1] is “− (− indicates ≦ 10−fold)”. Also, the EC50 in assay [2] (setting [3]) is over 1000 nM.
